By IC50 is commonly meant the point on the concentration scale where inhibition reaches its midpoint. The low end stands for greater potency, the high end for weaker potency. In general, half-life refers to the time in which the quantity being followed falls by half. Read a high half-life as slow loss.

Molecules are shown by their SMILES. Active and inactive are the calls of the source. The calls are words filed in the database; no cut-off is given here.

Data on 8 compounds can be found in ChEMBL document CHEMBL4130518, “Apratoxin S10, a Dual Inhibitor of Angiogenesis and Cancer Cell Growth To Treat Highly Vascularized Tumors” (ACS Med Chem Lett, 2017).

Data set [1] has as its system A498. The experiment in a line: Antiproliferative activity against human A498 cells after 48 hrs by MTT assay. To be noted: A498, 48 h. Type of data set: functional, cell-based. A general note: Tetrazolium dyes change colour on reduction, which living cells bring about.
Data set [2] relates to NCI-H727. The data set can be described thus: Antiproliferative activity against human NCI-H727 cells after 48 hrs by MTT assay. The class given is functional, cell-based. To be noted: NCI-H727, 48 h.
The test system of data set [3] is HUVEC. The data set can be described thus: Antiangiogenic activity in HUVEC assessed as inhibition of tube like structures formation at 10 pM to 1 uM after 14 hrs by matrigel based inverted microscopy. To be noted: Homo sapiens. The class given is functional, cell-based.
Data set [4] relates to Huh-7. The experiment in a line: Antiproliferative activity against human HuH7 cells after 48 hrs by MTT assay. Type of data set: functional, cell-based. Conditions: Huh-7, 48 h.
Data set [5] in a line: Half life in KCl/HCl buffer at pH 2.32 after 24 hrs by HPLC-MS analysis. The class given is physicochemical.
Data set [6] relates to HUVEC. The experiment in a line: Antiangiogenic activity in HUVEC assessed as diminishing of branch points at 10 pM after 14 hrs by inverted microscopy. Type of data set: functional, cell-based. Conditions: Homo sapiens.
The test system of data set [7] is Huh-7. The data set can be described thus: Inhibition of IL-6 secretion in human HuH7 cells at 10 pM to 1 uM after 24 hrs by AlphaLISA based immuno assay. The class given is functional, cell-based.
Data set [8] relates to Huh-7. The experiment in a line: Inhibition of VEGF-A secretion in human HuH7 cells at 10 pM to 1 uM after 24 hrs by AlphaLISA based immuno assay. Type of data set: functional, cell-based. (In general: In Alpha technology, singlet oxygen from a donor bead excites a nearby acceptor bead.)
Data set [9] has as its system NCI-H727. The experiment in a line: Downregulation of IGF1Rbeta in human NCI-H727 cells at 10 pM to 1 uM after 24 hrs by AlphaLISA based immuno assay. The class given is functional, cell-based.
Data set [10] concerns HUVEC. The data set can be described thus: Antiangiogenic activity in HUVEC assessed as decrease in number of junctions at 10 pM after 14 hrs by branch point counting analysis. Type of data set: functional, cell-based. Conditions: Homo sapiens.
Data set [11] has as its system HUVEC. The experiment in a line: Antiangiogenic activity in HUVEC assessed as inhibition of tube like structures formation after 14 hrs by matrigel based inverted microscopy. The class given is functional, cell-based. Conditions: Homo sapiens.
Data set [12] deals with Huh-7. The data set can be described thus: Downregulation of FGFR4 in human HuH7 cells at 10 pM to 1 uM after 24 hrs by AlphaLISA based immuno assay. The class given is functional, cell-based.
Data set [13] concerns A498. The data set can be described thus: Downregulation of EGFR in human A498 cells at 10 pM to 1 uM after 24 hrs by AlphaLISA based immuno assay. The class given is functional, cell-based.
Data set [14] concerns A498. The data set can be described thus: Inhibition of VEGF-A secretion in human A498 cells at 10 pM to 1 uM after 24 hrs by AlphaLISA based immuno assay. The class given is functional, cell-based.
Data set [15] relates to HUVEC. The experiment in a line: Cytotoxicity against HUVEC assessed as decrease in cell viability after 48 hrs by MTT assay. Type of data set: functional, cell-based. Conditions: Homo sapiens.
For data set [16], the system named is NCI-H727. The experiment in a line: Inhibition of IL-6 secretion in human NCI-H727 cells at 10 pM to 1 uM after 24 hrs by AlphaLISA based immuno assay. The class given is functional, cell-based.
Data set [17] has as its system A498. The data set can be described thus: Downregulation of MET in human A498 cells at 10 pM to 1 uM after 24 hrs by AlphaLISA based immuno assay. The class given is functional, cell-based.
Data set [18] has as its system HUVEC. The data set can be described thus: Downregulation of VEGFR2 expression level in HUVEC at >= 10 nM after 14 hrs by immunoblot analysis. The class given is functional, cell-based. Conditions: Homo sapiens.
Data set [19] concerns NCI-H727. The data set can be described thus: Inhibition of VEGF-A secretion in human NCI-H727 cells at 10 pM to 1 uM after 24 hrs by AlphaLISA based immuno assay. Type of data set: functional, cell-based.
Data set [20] concerns NCI-H727. The experiment in a line: Downregulation of VEGFR2 in human NCI-H727 cells at 10 pM to 1 uM after 24 hrs by AlphaLISA based immuno assay. Type of data set: functional, cell-based.
For data set [21], the system named is A498. The experiment in a line: Inhibition of IL-6 secretion in human A498 cells at 10 pM to 1 uM after 24 hrs by AlphaLISA based immuno assay. Type of data set: functional, cell-based.
Another data set relates to HCT-116. The experiment in a line: Antiproliferative activity against human HCT116 cells after 48 hrs by MTT assay. Conditions: HCT-116, 48 h. Type of data set: functional, cell-based.
Data set [22] deals with HUVEC. The experiment in a line: Antiangiogenic activity in HUVEC assessed as inhibition of tube like structures formation at 100 nM to 1 uM after 14 hrs by matrigel based inverted microscopy. Type of data set: functional, cell-based. To be noted: Homo sapiens.
Data set [23] deals with HUVEC. The experiment in a line: Antiangiogenic activity in HUVEC assessed as inhibition of tube like structures formation at < 100 nM after 14 hrs by matrigel based inverted microscopy. The class given is functional, cell-based. To be noted: Homo sapiens.

For the compound `C#Cc1cccc(Nc2ncnc3cc(OCCOC)c(OCCOC)cc23)c1` [ERLOTINIB], the figures for the IC50 in the data set on A498 [1], with NCI-H727 [2] and with Huh-7 [4] were 12.5 µM, over 6.24 µM and 25 µM, respectively. Besides, the inhibition entry in the data set on HUVEC [3] was “inactive”.
For `CC[C@H](C)[C@H]1C(=O)N2CCC[C@H]2C(=O)O[C@H](C(C)(C)C)C[C@@H](C)C[C@@H](O)[C@H](C)C2=N[C@H](CCC(=O)N[C@@H](Cc3ccc(OC)cc3)C(=O)N(C)[C@@H](C)C(=O)N1C)CS2`, the half-life in data set [5] was over 24 h.
On to `CC[C@H](C)[C@@H]1C(=O)N2CCC[C@@H]2C(=O)O[C@H](C(C)(C)C)C[C@@H](C)C[C@@H](O)C(C)(C)C2=N[C@H](CCC(=O)N[C@@H](Cc3ccc(OC)cc3)C(=O)N(C)[C@@H](C)C(=O)N1C)CS2`, for which the result with HUVEC [6], in the data set with NCI-H727 [9], with HUVEC [10], in the data set with Huh-7 [12], with A498 [13] and with HUVEC [15] was Active. Also, the outcome in the data set on A498 [17], in the data set on HUVEC [18] and in the data set with NCI-H727 [20] was Active. Also, the inhibition entry with Huh-7 [7], in the data set on Huh-7 [8], in the data set on A498 [14], in the data set with NCI-H727 [16], in the data set on NCI-H727 [19] and in the data set with A498 [21] was “Active” throughout. Further, the inhibition entry in the data set on HUVEC [11] is “Dose-dependent effect”.
In data set [5], `CC[C@H](C)[C@H]1C(=O)N2CCC[C@H]2C(=O)O[C@H](C(C)(C)C)C[C@@H](C)C[C@@H](O)[C@H](C)C2=N[C@@H](CCC(=O)N[C@@H](Cc3ccc(OC)cc3)C(=O)N(C)[C@@H](C)C(=O)N1C)CS2` displayed a half-life of over 24 h.
As for `CC[C@H](C)[C@H]1C(=O)N2CCC[C@H]2C(=O)O[C@H](C(C)(C)C)C[C@@H](C)C[C@@H](O)C(C)(C)C2=N[C@H](CCC(=O)N[C@@H](Cc3ccc(OC)cc3)C(=O)N(C)[C@@H](C)C(=O)N1C)CS2`, the IC50 with A498 [1] is 0.00335 µM; in the data set with NCI-H727 [2], 0.00255 µM; in the data set with HCT-116 it was 0.00147 µM; with Huh-7 [4] it was 0.00083 µM. Moreover, the half-life in [5] was over 24 h.
For `CC[C@H](C)[C@H]1C(=O)N2CCC[C@H]2C(=O)O[C@H](C(C)(C)C)C[C@@H](C)C[C@@H](O)C(C)(C)C2=N[C@@H](CCC(=O)N[C@@H](Cc3ccc(OC)cc3)C(=O)N(C)[C@@H](C)C(=O)N1C)CS2`, the half-maximal inhibitory concentration (IC50) in the data set with HCT-116 is 0.00199 µM. This compound displayed a half-life in data set [5] of over 24 h.
For the compound `COc1cc2nccc(Oc3ccc(NC(=O)C4(C(=O)Nc5ccc(F)cc5)CC4)cc3)c2cc1OC` [CABOZANTINIB], the figures for the IC50 in the data set on A498 [1], with NCI-H727 [2] and with Huh-7 [4] were 8.46 µM, 14 µM and 4.35 µM, respectively. In the data set with HUVEC [3], the inhibition entry was “inactive”.
Take `CCN(CC)CCNC(=O)c1c(C)[nH]c(/C=C2\C(=O)Nc3ccc(F)cc32)c1C` [SUNITINIB]: the results for the IC50 in the data set with A498 [1], in the data set with NCI-H727 [2] and with Huh-7 [4] were 7.98 µM, 10.1 µM and 4.71 µM, respectively. Besides, the inhibition entry with HUVEC [22] was “Active”. Also, in the data set on HUVEC [23], the inhibition entry is “inactive”.
